Experimental data reported in patent publication US6586006B2, “Solid delivery systems for controlled release of molecules incorporated therein and methods of making same” (Elan Drug Delivery Limited, priority 1994, dated 2003).
“Also recorded” adds a separate entry of the source. Each block holds one compound with its values, some of them ahead of it.

Assays:
[1] = Stability, recovery and release of XPDO from HDC glass (HPLC); format: physicochemical
Description: Release characteristics of the vitreous HDC solid dose delivery systems were studied by monitoring the release of MB9 from TOAC/XPDO glasses as shown in FIG. 15. For analysis of stability of active in the vitreous HDC solid dose delivery systems, XPDO was recovered from the samples by dissolving the glass in acetonitrile and analyzing by HPLC. There was full recovery of the guest substance even after storage at 45° C. for 4 weeks.
For analysis XPDO was extracted from the spray-dried powder by dissolving the powder in acetonitrile and then diluting the acetonitrile with sodium phosphate buffer prior to analysis by HPLC. Samples were set up to test stability of XPDO in the spray dried formulations at 45° C. and stored over saturated Zinc sulphate (RH 80-85%).
For release into sodium phosphate buffer, 0.0868 g of the spray dried powder was shaken in 10 mls of the buffer for 1 minute. The suspension was then filtered through a 0.2 μm filter. […] Bioavailability of the steroid from the delivery system was tested by immersion in an aqueous solution for a short time. Stability of the steroid in the spray-dried formulation was tested at high humidity and 45° C. (both factors are important if the application as an inhalable powder is to be successful). The results indicated a resistance to high humidity, stability in the glass and ready bioavailability in vitro tests.

[2] = Resistance of glasses to devitrification on exposure to relative humidity; format: physicochemical
Description: Glasses were made by evaporating DCM on a hotplate set at 65° C. from a 25% solutions of TOAC (50% solutions often deposited crystals in the pipette tip). Drying was carried out for 2 hr to be certain of complete dryness. Uniform glasses were produced by using an Eppendorf-type pipette to deliver 100 μl to a slide recently placed on the hotplate and then removing about 50 μl by using the clear/expel volume of the pipette.
XPDO was therefore incorporated into a TOAC glass by dissolving both crystalline TOAC and XPDO in DCM and evaporating the solvent at 70° C. on a hotplate. XPDO was used in proportions of 10% and 20% of total solids in the final TOAC glass.
(§1) The resulting glasses were tested for their utility as controlled release matrices in two ways. First, they were assessed for their ability to resist devitrification on exposure to high RH at RT. Second, they were immersed in water or phosphate-buffered saline (PBS) to study their solubility and rate of erosion by surface recrystallization.

[3] = Glass transition temperature (Tg) by thermal analysis (DSC); format: physicochemical
From the text: In general, the tendency to crystallize, from a cooling melt or with reducing solvent, is low. Both devitrification and the fluidity of the melt at temperatures close to Tg, can be controlled by modifiers such as other derivative sugars and certain organic actives. The following two tables, generated as described in the Examples presented below, provide Tg and melting temperature data for a variety of HDCs suitable for use, either alone, or in a composite glass, herein.
Dissolution of synthetic corticosteroid XPDO (described below) into a TOAC melt and quenching to form the vitreous solid dose delivery system was achieved. By looking at the release of MB9 into aqueous solution, these experiments tested the compatibility of the steroid within the glass, subsequent recovery of the steroid and studied the effect that XPDO has on the properties of the delivery system formed looking at the release of MB9 into aqueous solution. TOAC (3.21 g) was pre-melted at 150° C., before being quenched to glass. The glass was finely ground with XPDO (0.15 g) before being remelted. The clear melt was again quenched to yield the composite HDC/active glass. Thermal analysis was carried out on a Rheometric Scientific Differential Scanning Calorimeter (DSC) at a heating rate of 10°/min under a nitrogen atmosphere. The following samples were prepared:
Studies were performed using the synthetic corticosteroid XPDO dissolved in DCM. The solution was spray dried in a Buchi B-191 spray drier, using an inlet temperature of 40° C. […] XPDO was incorporated at 20 wt %. The powder was completely amorphous as confirmed by thermal analysis (Tg=46° C.).

[4] = Devitrification / recrystallization of glasses immersed in liquid water; format: physicochemical
Description: However, when immersed in liquid water, the surface of the glass slowly recrystallized so that microscopic pyramidal crystals of TOAC could be seen under an inverted microscope within 15-30 min of addition of water. Crystallization was slowly progressive and within another few minutes small clusters of the typical needle shaped crystals of XPDO appeared. Since neither the needle shaped XPDO crystals nor the pyramidal TOAC crystals were adherent to the underlying glass, they were washed away readily to reveal a fresh glass surface for further slow dissolution. The complete exclusion of XPDO from the TOAC crystals ensured that this molecule, previously incorporated in the glassy TOAC matrix, was now released into the liquid phase.
as §1
The 10% α-GPAC and 10% TOPR in TOAC glasses and the 50:50 molar ratio TOAC:α-GPAC glass were also immersed in water to examine their rate of devitrification in liquid water rather than humid air.

[5] = Controlled release of encapsulated MB9 dye from HDC glass beads/discs; format: physicochemical
Description: In the following experiments, the delivery system was preformulated, whether as a single material, or as a mixed composition. This was carried out by intimately grinding the component HDCs together, followed by careful, controlled melting in a furnace, between 120-140° C. and with normal atmosphere to form melts. The melts were quenched to glass by pouring over a brass block. This glass was then finely ground.
MB9 dye (1 or 5 wt %) was mixed with the ground glass prior to re-melting at 140° C. The melt was quenched to form small glass beads (2.5 mm diameter) which were used in controlled release experiments.
Controlled release of encapsulated dye was monitored by suspending three such beads in 25 or 50 ml of deionized water or PBS solution at ambient temperatures (27-30° C.) or at 37° C., as indicated. The media were undisturbed, except for periodic stirring and were replaced at set intervals with fresh media (generally at 72 hr intervals). Both single HDC glasses and composite HDC glasses were formed. […] The use of other HDCs as glass modifiers in the composite HDC formulations enable the tailoring of the glasses formed to yield the release characteristics desired.
In FIG. 8, the results were obtained from TOAC glass discs (6 mm×2.5 mm) with MB9 dye evenly dispersed therein at 2 wt %. Release was controlled at 25° C. with gentle stirring and media changes at regular intervals. Note the linear release of MB9 dye over a 55 day period. The results presented in FIG. 8 indicate that a pure HDC vitreous delivery vehicle system gives zero-order release rates of guest substances. The results presented in FIGS. 9-14 show variation on release rates by changing the ratios of different HDCs in the delivery systems, changing the carbohydrate backbone length and by changing the nature of the derivative on the carbohydrate backbone. In each instance it is clear that the HDC delivery systems allow a wide range of release rates that can be tailored to the guest substance and the delivery thereof.

[6] = tested on: African Green monkey kidney-derived cell line Vero; assay: In vitro toxicity of TOAC in Vero cell culture; format: cell-based; conditions: saturated solution in 10-fold serial dilution or powder added to medium; week of culture
Description: A saturated solution of TOAC in deionised distilled water (0.42 g in 20 mls) was tested for toxicity in vitro using the African Green monkey kidney-derived cell line Vero, in either a 10-fold serial dilution or by adding the TOAC powder directly to the tissue culture medium.

[7] = Encapsulation of organic substances in α-D-glucose pentaacetate glass; format: physicochemical
Description: Excellent recoveries were obtained in the encapsulation of several organic substances in the glasses. Glass discs of α-D-Glucose pentaacetate containing 2% w/w of the materials listed in Table 4 were formed by melting and quenching and then ground. Photochrome II is 5-chloro-1,3-dihydro-1,3,3-trimethyl spiro[2H-indole-2,3′-[3H]-napth[2,1-b] [1,4]-oxazine. The encapsulated materials were extracted by the suitable solvent such as methanol or water.
Pesticide-like Oxadiazon was dissolved easily in the melt of this glass at about 15% w/w without problem.

degradation on HPLC analysis ([1]; spray dried glass powder, 4 weeks storage at 45° C. and 85% RH): No evidence of any degradation | change in glass structure such as recrystallization ([2]; guest in TOAC glass from DCM, stored at RH of 75%, 81%, 90% and 95% for 4 weeks): no change in glass structure | Tg ([3]; spray dried amorphous powder, XPDO incorporated at 20 wt %): 46 °C | time to release of guest substance when added to liquid water ([4]; 10% (w/v) guest in HDC glass): 5 to 10 min | time to surface recrystallization after immersion in water ([4]; glass immersed in liquid water): 15 to 30 min
Compound: CCCC1OC2CC3C4CC(F)C5=CC(=O)CCC5(C)C4(F)C(O)CC3(C)C2(C(=O)CO)O1 (stereo not drawn) [XPDO, 6α,9α-difluoro-11β,21-dihydroxy-16α,17α-propyl methylene dioxy-4-pregnene-3,20-dione]
release into sodium phosphate buffer ([1]; spray dried powder shaken in buffer for 1 minute, filtered, HPLC): effectively being released into aqueous solution | HDC glass stability at high relative humidity ([2]; 10% (w/v) guest in HDC (TOAC) glass, RH up to 95%, room temperature): stable when exposed to relative humidities of up to 95% at room temperature for over a month

recrystallization of glass on storage ([2]; TOAC glass from DCM on slides, room temperature, 50-60% relative humidity): gradually recrystallized over 1 month | Initial Form ([2]; mixed HDC glasses (Table 6)): Glass | After RH 24 hr ([2]; mixed HDC glasses exposed to high RH (75% to 95%) at RT, 24 hr): Cryst + + + + | Tg ([3]; glass quenched from melt, DSC, heating rate 10°/min, nitrogen): Tg = 50.1 °C | Tg/° C. ([3]; single HDC glasses (Table 1)): 50 °C | Tg/° C. ([3]; single and composite HDC glasses, mole ratios of HDCs in glass (Table 2)): 50 °C | period of linear release of MB9 dye ([5]; TOAC glass discs 6 mm×2.5 mm, MB9 2 wt %, PBS, 25° C., FIG. 8): 55 days | MB9 release characteristics ([5]; TOAC glass, MB9 dye): zero-order release characteristics
Compound: CC(=O)OCC1OC(OC2OC(COC(C)=O)C(OC(C)=O)C(OC(C)=O)C2OC(C)=O)C(OC(C)=O)C(OC(C)=O)C1OC(C)=O (stereo not drawn) [TOAC, trehalose octaacetate]
devitrification at RH from 75% to 95% ([2]; thin glass films and quenched disks, RT, overnight exposure): very susceptible to devitrification at high RH; also recorded: crystallized at all RHs from 75% to 95% | cell division [6]: normal | toxic effects [6]: No toxic effects were observed

Compound: CC(C)Oc1cc(-n2nc(C(C)(C)C)oc2=O)c(Cl)cc1Cl [Oxadiazon]
amount dissolved in the melt of the glass [7]: about 15 % w/w

melting point: 100 to 104 °C | Tg/° C. ([3]; single HDC glasses (Table 1)): −6 °C
Compound: CC(=O)OC[C@H](OC(C)=O)[C@@H](OC(C)=O)[C@H](OC(C)=O)[C@@H](COC(C)=O)OC(C)=O [SHAC, sorbitol hexaacetate]
